Test results taken from BindingDB's records for doi:10.1038/nchembio.421 (Novartis Institutes for BioMedical Research, 2010).

Target: T1, Farnesyl pyrophosphate synthase (Homo sapiens, UniProt P14324)
T1 sequence (P14324 whole entry): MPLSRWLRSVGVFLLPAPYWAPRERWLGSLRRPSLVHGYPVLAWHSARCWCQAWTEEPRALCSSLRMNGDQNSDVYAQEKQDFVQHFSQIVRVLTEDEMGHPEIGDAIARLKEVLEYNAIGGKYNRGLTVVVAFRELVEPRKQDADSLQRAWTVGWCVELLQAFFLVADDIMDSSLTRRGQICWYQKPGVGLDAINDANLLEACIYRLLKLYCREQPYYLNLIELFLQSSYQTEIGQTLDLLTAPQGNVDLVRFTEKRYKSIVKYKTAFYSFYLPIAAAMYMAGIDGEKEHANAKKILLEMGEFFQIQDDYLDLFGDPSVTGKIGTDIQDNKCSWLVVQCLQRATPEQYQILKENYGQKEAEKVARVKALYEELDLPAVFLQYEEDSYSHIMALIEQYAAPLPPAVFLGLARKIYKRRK
Assay: Biophysical assay
Details: pH 7.4; 23 °C
Source text: A biophysical assay using NMR spectroscopy to identify fragments with higher binding affinity to human recombinant FPPS.

Row | SMILES | IC50 [µM]
1 | O=C(O)c1cc(Cn2c(C(=O)O)cc3ccc4ccccc4c32)on1 [5-((2-Carboxy-1H-benzo[g]indol-1-yl)methyl)isoxazole-3-carboxylic acid, 12] | 0.08
2 | O=C(O)Cc1sc2ccccc2c1Cl [2-(3-Chlorobenzo[b]thiophen-2-yl)acetic acid, 6] | 12
3 | Cc1c(CC(=O)O)sc2ccc(Cl)cc12 [CID68686] | > 500
4 | CC(C(=O)O)c1cc2c(Cl)cccc2s1 (centres undefined) [2-(4-Chlorobenzo[b]thiophen-2-yl)propanoic acid, 5] | 80
